Read-outs that look alike come from different tables or passages of the source. Blank lines part the entries; values can stand above or below the molecule they belong to.
Assays:
[1] = Stability in liver microsomes, human; settings: for AUC / AUC Mono (treprostinil formed) / CLint / Half-life: human; for CLint / Half-life: microsomes
[2] = Stability in liver microsomes, rat; settings: for CLint, calculated (in parentheses) / Half-life, calculated (in parentheses) / CLint / Half-life: microsomes; for AUC Mono (treprostinil formed) / CLint / Half-life: rat
[3] = Stability in liver microsomes, dog; settings: for AUC Mono (treprostinil formed) / CLint / Half-life: dog; for CLint / Half-life: microsomes
[4] = Stability in cryopreserved hepatocytes, rat; settings: for CLint, calculated (in parentheses) / Half-life, calculated (in parentheses) / CLint / Half-life: hepatocytes; for AUC / Mono AUC (treprostinil formed) / CLint / Half-life: rat
[5] = Stability in cryopreserved hepatocytes, dog; settings: for AUC / Mono AUC (treprostinil formed) / CLint / Half-life: dog; for CLint / Half-life: hepatocytes
[6] = target: prostaglandin E2 (PGE2) receptor 2 (EP2) (Homo sapiens, UniProt P43116); experiment: EP2 receptor cAMP agonist assay (HEK293T cells); assay type: cell-based; design: key to EC50 Fold Different from Treprostinil, EP2 Receptor: NC = too inactive to realistically calculate; settings: for Activity at the EP2 receptor compared to treprostinil: summary of findings
Method: Cyclic AMP assay kit: Multiscreen™ TR-FRET cAMP 1.0 No Wash Assay Kit (Multispan, Inc.)
Cells were thawed from frozen cells and resuspended in assay buffer at desired concentrations. cAMP or Calcium assays were performed according to the manufacturer's protocol using Multiscreen™ TR-FRET cAMP 1.0 No Wash Assay Kit or Multiscreen™ Calcium 1.0 No Wash Kit.
Gas Cyclic AMP (cAMP) Assay: In agonist mode testing, cells were seeded in a 384-well plate at an appropriate density and then were treated with compounds and incubated at 37° C. for 20 minutes. The reaction was terminated by […] trFluor™ Eu-labeled cAMP and trFluor™ 650-labeled anti-cAMP antibody in lysis buffer. […] All testing wells contained 0.1% DMSO in the final concentrations.
Data in graphs are represented in Mean±SD. Dose-dependent responses were fitted with sigmoidal dose-response curves allowing variable slopes using GraphPad Prism version 6 (Graphpad Prism).
These studies used cell lines overexpressing either human IP, EP2 or DP1, or EP1 receptors, and following incubation with varying concentrations of compounds, cAMP levels were measured using Fluorescence Resonance Energy Transfer (FRET).

[7] = Hydrolysis of prodrugs to treprostinil at pH 6, 7, 8 and 40 C; assay type: physicochemical
Description: Tables 24, 25 and 26 present data for hydrolysis of selected treprostinil prodrugs at pH 6, 7 and 8, respectively, and 40 C.

[8] = dog

prostaglandin E2 (PGE2) receptor 2 (EP2), sequence (P43116 whole entry): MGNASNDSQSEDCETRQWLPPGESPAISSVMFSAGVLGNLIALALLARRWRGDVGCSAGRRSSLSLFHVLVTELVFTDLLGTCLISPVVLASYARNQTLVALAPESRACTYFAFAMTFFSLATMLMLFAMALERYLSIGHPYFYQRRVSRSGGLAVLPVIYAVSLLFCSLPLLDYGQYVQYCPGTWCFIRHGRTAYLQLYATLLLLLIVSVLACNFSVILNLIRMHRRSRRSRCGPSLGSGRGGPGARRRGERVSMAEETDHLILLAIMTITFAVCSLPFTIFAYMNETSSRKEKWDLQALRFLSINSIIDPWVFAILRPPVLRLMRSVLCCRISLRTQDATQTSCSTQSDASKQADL

Trep Concentration 0 min [1]: 0.989 µM
Trep Concentration 10 min [1]: 0.829 µM
Trep Concentration 20 min [1]: 0.543 µM
Trep Concentration 30 min [1]: 0.485 µM
Trep Concentration 60 min [1]: 0.349 µM
Treprostinil Concentration 0 min [1]: 0.989 µM
Treprostinil Concentration 15 min [1]: 0.829 µM
Treprostinil Concentration 30 min [1]: 0.543 µM
Treprostinil Concentration 60 min [1]: 0.485 µM
Treprostinil Concentration 120 min [1]: 0.349 µM
AUC [1]: 33.6 µmol·min/L
AUC Mono (treprostinil formed) [1]: 33.6 µmol·min/L
CLint [1]: >0.139 mL/min/mg protein
Half-life [1]: <10 min
Trep Concentration 0 min [2]: 0.0413 µM
Trep Concentration 10 min [2]: 0.095 µM
Trep Concentration 20 min [2]: 0.182 µM
Trep Concentration 30 min [2]: 0.19 µM
Trep Concentration 60 min [2]: 0.216 µM
Treprostinil Concentration 0 min [2]: 0.0413 µM
Treprostinil Concentration 15 min [2]: 0.095 µM
Treprostinil Concentration 30 min [2]: 0.182 µM
Treprostinil Concentration 60 min [2]: 0.19 µM
Treprostinil Concentration 120 min [2]: 0.216 µM
CLint, calculated (in parentheses) [2]: 0.144 mL/min/mg protein
Half-life, calculated (in parentheses) [2]: 9.65 min
AUC Mono (treprostinil formed) [2]: 10.0 µmol·min/L
CLint [2]: > 0.139 mL/min/mg protein
Half-life [2]: < 10 min
Trep Concentration 0 min [3]: 1.07 µM
Trep Concentration 10 min [3]: 1.07 µM
Trep Concentration 20 min [3]: 1.04 µM
Trep Concentration 30 min [3]: 1.05 µM
Trep Concentration 60 min [3]: 0.897 µM
Treprostinil Concentration 0 min [3]: 1.07 µM
Treprostinil Concentration 15 min [3]: 1.07 µM
Treprostinil Concentration 30 min [3]: 1.04 µM
Treprostinil Concentration 60 min [3]: 1.05 µM
Treprostinil Concentration 120 min [3]: 0.897 µM
AUC Mono (treprostinil formed) [3]: 60.9 µmol·min/L
CLint [3]: >0.139 mL/min/mg protein
Half-life [3]: <10 min
Trep Concentration (μM) 0 min [4]: 0 µM
Trep Concentration (μM) 15 min [4]: 0.24 µM
Trep Concentration (μM) 30 min [4]: 0.301 µM
Trep Concentration (μM) 60 min [4]: 0.298 µM
Trep Concentration (μM) 120 min [4]: 0.274 µM
Treprostinil Concentration 0 min [4]: 0 µM
Treprostinil Concentration 120 min [4]: 0.274 µM
CLint, calculated (in parentheses) [4]: 0.0697 mL/min/mg protein
Half-life, calculated (in parentheses) [4]: 6.63 min
AUC [4]: 32 µmol·min/L
Mono AUC (treprostinil formed) [4]: 32.0 µmol·min/L
CLint [4]: > 0.0308 mL/min/mg protein
Half-life [4]: < 15 min
Trep Concentration (μM) 0 min [5]: 0.0636 µM
Trep Concentration (μM) 30 min [5]: 0.541 µM
Trep Concentration (μM) 60 min [5]: 0.465 µM
Trep Concentration (μM) 120 min [5]: 0.401 µM
Treprostinil Concentration 15 min [5]: 0.671 µM
Treprostinil Concentration 120 min [5]: 0.401 µM
AUC [5]: 55.67 µmol·min/L
Mono AUC (treprostinil formed) [5]: 55.7 µmol·min/L
CLint [5]: >0.0308 mL/min/mg protein
Half-life [5]: <15 min
Activity at the EP2 receptor compared to treprostinil [6]: non-traditional dose response curve
Hydrolysis to treprostinil, % Area, t = 1 week ([7]; pH 6, 40 C.): 0.00 % Area
Hydrolysis to treprostinil, % Area, t = 2 weeks ([7]; pH 6, 40 C.): 0.00 % Area
Hydrolysis to treprostinil, % Area, t = 3 weeks ([7]; pH 6, 40 C.): 0.00 % Area
Hydrolysis to treprostinil, % Area, t = 1 week ([7]; pH 7, 40 C.): 0.00 % Area
Hydrolysis to treprostinil, % Area, t = 2 weeks ([7]; pH 7, 40 C.): 0.00 % Area
Hydrolysis to treprostinil, % Area, t = 3 weeks ([7]; pH 7, 40 C.): 0.00 % Area
Hydrolysis to treprostinil, % Area, t = 1 week ([7]; pH 8, 40 C.): 0.00 % Area
Hydrolysis to treprostinil, % Area, t = 2 weeks ([7]; pH 8, 40 C.): 0.00 % Area
Hydrolysis to treprostinil, % Area, t = 3 weeks ([7]; pH 8, 40 C.): 0.00 % Area
AUC [8]: 60.91 µmol·min/L
Molecule: treprostinil diacetate [Prodrug LXXII]

Trep Concentration 0 min [1]: 1.18 µM
Trep Concentration 10 min [1]: 0.903 µM
Trep Concentration 20 min [1]: 0.602 µM
Trep Concentration 30 min [1]: 0.538 µM
Trep Concentration 60 min [1]: 0.381 µM
Treprostinil Concentration 0 min [1]: 1.18 µM
Treprostinil Concentration 15 min [1]: 0.903 µM
Treprostinil Concentration 30 min [1]: 0.602 µM
Treprostinil Concentration 60 min [1]: 0.538 µM
Treprostinil Concentration 120 min [1]: 0.381 µM
AUC [1]: 37.43 µmol·min/L
AUC Mono (treprostinil formed) [1]: 37.4 µmol·min/L
CLint [1]: >0.139 mL/min/mg protein
Half-life [1]: <10 min
Trep Concentration 0 min [2]: 0.336 µM
Trep Concentration 10 min [2]: 0.595 µM
Trep Concentration 20 min [2]: 0.764 µM
Trep Concentration 30 min [2]: 0.653 µM
Trep Concentration 60 min [2]: 0.699 µM
Treprostinil Concentration 0 min [2]: 0.336 µM
Treprostinil Concentration 15 min [2]: 0.595 µM
Treprostinil Concentration 30 min [2]: 0.764 µM
Treprostinil Concentration 60 min [2]: 0.653 µM
Treprostinil Concentration 120 min [2]: 0.699 µM
CLint, calculated (in parentheses) [2]: 0.250 mL/min/mg protein
Half-life, calculated (in parentheses) [2]: 5.53 min
AUC Mono (treprostinil formed) [2]: 38.8 µmol·min/L
CLint [2]: > 0.139 mL/min/mg protein
Half-life [2]: < 10 min
Trep Concentration 0 min [3]: 1.24 µM
Trep Concentration 10 min [3]: 1.26 µM
Trep Concentration 20 min [3]: 1.24 µM
Trep Concentration 30 min [3]: 1.23 µM
Trep Concentration 60 min [3]: 1.07 µM
Treprostinil Concentration 0 min [3]: 1.24 µM
Treprostinil Concentration 15 min [3]: 1.26 µM
Treprostinil Concentration 30 min [3]: 1.24 µM
Treprostinil Concentration 60 min [3]: 1.23 µM
Treprostinil Concentration 120 min [3]: 1.07 µM
AUC Mono (treprostinil formed) [3]: 71.9 µmol·min/L
CLint [3]: >0.139 mL/min/mg protein
Half-life [3]: <10 min
Trep Concentration (μM) 0 min [4]: 0 µM
Trep Concentration (μM) 15 min [4]: 0.606 µM
Trep Concentration (μM) 30 min [4]: 0.579 µM
Trep Concentration (μM) 60 min [4]: 0.484 µM
Trep Concentration (μM) 120 min [4]: 0.405 µM
Treprostinil Concentration 0 min [4]: 0 µM
Treprostinil Concentration 120 min [4]: 0.405 µM
CLint, calculated (in parentheses) [4]: 0.116 mL/min/mg protein
Half-life, calculated (in parentheses) [4]: 3.97 min
AUC [4]: 56.05 µmol·min/L
Mono AUC (treprostinil formed) [4]: 56.1 µmol·min/L
CLint [4]: > 0.0308 mL/min/mg protein
Half-life [4]: < 15 min
Trep Concentration (μM) 0 min [5]: 0.0959 µM
Trep Concentration (μM) 30 min [5]: 0.597 µM
Trep Concentration (μM) 60 min [5]: 0.511 µM
Trep Concentration (μM) 120 min [5]: 0.445 µM
Treprostinil Concentration 15 min [5]: 0.736 µM
Treprostinil Concentration 120 min [5]: 0.445 µM
AUC [5]: 61.54 µmol·min/L
Mono AUC (treprostinil formed) [5]: 61.5 µmol·min/L
CLint [5]: >0.0308 mL/min/mg protein
Half-life [5]: <15 min
EC50 Fold Different from Treprostinil, EP2 Receptor ([6]; Table 18, * partial agonists or odd dose-response curves): NC
Activity at the EP2 receptor compared to treprostinil [6]: inactive
Hydrolysis to treprostinil, % Area, t = 1 week ([7]; pH 6, 40 C.): 0.00 % Area
Hydrolysis to treprostinil, % Area, t = 2 weeks ([7]; pH 6, 40 C.): 0.00 % Area
Hydrolysis to treprostinil, % Area, t = 3 weeks ([7]; pH 6, 40 C.): 0.00 % Area
Hydrolysis to treprostinil, % Area, t = 1 week ([7]; pH 7, 40 C.): 0.00 % Area
Hydrolysis to treprostinil, % Area, t = 2 weeks ([7]; pH 7, 40 C.): 0.00 % Area
Hydrolysis to treprostinil, % Area, t = 3 weeks ([7]; pH 7, 40 C.): 0.00 % Area
Hydrolysis to treprostinil, % Area, t = 1 week ([7]; pH 8, 40 C.): 0.00 % Area
Hydrolysis to treprostinil, % Area, t = 2 weeks ([7]; pH 8, 40 C.): 0.00 % Area
Hydrolysis to treprostinil, % Area, t = 3 weeks ([7]; pH 8, 40 C.): 0.00 % Area
AUC [8]: 71.85 µmol·min/L
Molecule: CCCCCC(CCC1C(OC(=O)CC)CC2Cc3c(cccc3OCC(=O)O)CC21)OC(=O)CC (stereo not drawn) [Prodrug LXX, treprostinil dipropionate]
